Active and inactive are the calls of the source.
Assays:
[1] = molecular target: T1, Small ubiquitin-related modifier 1 (Homo sapiens, UniProt P63165); experiment: SUMO1 protein interaction blockers, potency – biochemical, fluorescence polarization, uHTS hits, dose response (AID 624382); assay type: functional; conditions: read-out: IC50_Mean
[2] = molecular target: T2, Tyrosine-protein phosphatase non-receptor type 11 (Homo sapiens, UniProt Q06124); experiment: PTPN11 enzyme inhibitors – biochemical, selectivity assay for STEP inhibitor project, dose response (AID 602367); assay type: functional; conditions: read-out: IC50_Mean
T2 sequence (Q06124 whole entry): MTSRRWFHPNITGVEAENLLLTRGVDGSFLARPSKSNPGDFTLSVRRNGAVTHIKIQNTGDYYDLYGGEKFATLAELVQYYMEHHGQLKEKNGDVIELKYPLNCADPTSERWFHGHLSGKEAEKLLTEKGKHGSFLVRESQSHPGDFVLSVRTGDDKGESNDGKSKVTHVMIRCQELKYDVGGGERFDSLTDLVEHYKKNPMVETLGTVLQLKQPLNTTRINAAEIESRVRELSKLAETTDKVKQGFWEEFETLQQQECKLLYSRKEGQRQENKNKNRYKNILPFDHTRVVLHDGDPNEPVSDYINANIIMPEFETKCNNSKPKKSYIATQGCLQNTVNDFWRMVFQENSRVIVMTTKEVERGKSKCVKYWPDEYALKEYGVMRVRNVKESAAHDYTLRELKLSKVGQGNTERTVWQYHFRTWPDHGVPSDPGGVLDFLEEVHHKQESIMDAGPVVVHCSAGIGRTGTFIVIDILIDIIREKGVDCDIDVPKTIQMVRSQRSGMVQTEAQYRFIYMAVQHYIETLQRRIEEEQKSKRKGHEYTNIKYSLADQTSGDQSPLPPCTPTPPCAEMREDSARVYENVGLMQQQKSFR

[3] = molecular target: T3, Tyrosine-protein phosphatase non-receptor type 22 (Homo sapiens, UniProt Q9Y2R2); experiment: lymphoid phosphatase LYP inhibitors – biochemical, selectivity assay for STEP inhibitor project, dose response (AID 624241); assay type: functional
T3 sequence (Q9Y2R2 whole entry): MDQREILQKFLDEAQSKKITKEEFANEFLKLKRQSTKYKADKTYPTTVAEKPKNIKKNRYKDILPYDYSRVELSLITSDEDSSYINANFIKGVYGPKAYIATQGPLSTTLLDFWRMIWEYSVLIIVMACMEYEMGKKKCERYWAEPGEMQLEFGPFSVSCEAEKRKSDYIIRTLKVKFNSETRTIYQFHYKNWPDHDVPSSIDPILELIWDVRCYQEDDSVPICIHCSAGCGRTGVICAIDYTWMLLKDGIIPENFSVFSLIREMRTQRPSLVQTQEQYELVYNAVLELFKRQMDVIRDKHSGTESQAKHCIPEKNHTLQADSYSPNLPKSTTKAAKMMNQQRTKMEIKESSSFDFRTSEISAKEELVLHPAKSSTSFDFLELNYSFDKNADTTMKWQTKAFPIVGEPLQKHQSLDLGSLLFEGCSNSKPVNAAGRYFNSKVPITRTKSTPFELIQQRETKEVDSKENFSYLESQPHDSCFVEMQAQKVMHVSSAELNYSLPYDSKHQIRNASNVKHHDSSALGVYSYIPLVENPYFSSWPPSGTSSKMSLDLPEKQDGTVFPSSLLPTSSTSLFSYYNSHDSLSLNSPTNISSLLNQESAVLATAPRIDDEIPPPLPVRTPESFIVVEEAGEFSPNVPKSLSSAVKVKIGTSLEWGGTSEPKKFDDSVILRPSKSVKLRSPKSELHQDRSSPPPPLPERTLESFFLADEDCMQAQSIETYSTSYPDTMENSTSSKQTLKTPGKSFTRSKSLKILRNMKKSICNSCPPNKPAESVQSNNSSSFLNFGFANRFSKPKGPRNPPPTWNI

[4] = molecular target: T4, Carboxy-terminal domain RNA polymerase II polypeptide A small phosphatase 1 (Homo sapiens, UniProt Q9GZU7); experiment: CTDSP1 inhibitors, concentration-response, biochemical, absorbance readout, ultra-high-throughput screen actives (AID 540297); assay type: functional
T4 sequence (Q9GZU7 whole entry): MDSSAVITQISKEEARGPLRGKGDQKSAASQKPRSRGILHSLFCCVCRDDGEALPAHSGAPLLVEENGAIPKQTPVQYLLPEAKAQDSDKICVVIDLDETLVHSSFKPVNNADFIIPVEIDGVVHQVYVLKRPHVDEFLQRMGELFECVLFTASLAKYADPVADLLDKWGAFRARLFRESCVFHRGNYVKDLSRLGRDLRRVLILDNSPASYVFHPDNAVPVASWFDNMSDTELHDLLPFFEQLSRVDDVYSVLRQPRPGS

[5] = molecular target: Eukaryotic translation initiation factor 4H (Homo sapiens, UniProt Q15056); experiment: eIF4H binding inhibition – biochemical, uHTS, fluorescence polarization, translation initiation inhibitor project, primary screen (AID 2012)
[6] = molecular target: T5, Small ubiquitin-related modifier 2 (Homo sapiens, UniProt P61956); experiment: SUMO2 binding disruption by SUMO1 hits – biochemical, FRET, human SUMO2, uHTS hits, selectivity assay for SUMO1 interaction inhibitor project, dose response (AID 624384); assay type: functional; conditions: read-out: IC50_Mean
[7] = molecular target: T5, Small ubiquitin-related modifier 2; experiment: disruption of SUMO2 interaction with SIM peptide – biochemical, fluorescence polarization, uHTS hits, selectivity assay for SUMO1 interaction inhibitor project, dose response (AID 624385); assay type: functional; conditions: read-out: IC50_Mean
[8] = molecular target: Dual specificity protein phosphatase 3 (Homo sapiens, UniProt P51452); experiment: VHR phosphatase inhibition, dose response, selectivity assay for STEP inhibitor project, biochemical (AID 602374); assay type: functional; conditions: read-out: IC50_Mean
[9] = molecular target: T1, Small ubiquitin-related modifier 1; experiment: SUMO1 protein-protein binding blockers, potency – biochemical, FRET, dose response (AID 624383); assay type: functional; conditions: read-out: IC50_Mean
[10] = molecular target: Polyadenylate-binding protein 1 (Homo sapiens, UniProt P11940); experiment: blockers of PABP interaction with poly(A) – biochemical, fluorescence polarization, […] (AID 2014)
[11] = molecular target: T6, Tyrosine-protein phosphatase non-receptor type 5 (Homo sapiens, UniProt P54829); experiment: PTPN5 enzyme inhibition – biochemical, fluorescence intensity, uHTS hits, confirmation (AID 602372); assay type: functional; conditions: read-out: IC50_Mean
T6 sequence (P54829 whole entry): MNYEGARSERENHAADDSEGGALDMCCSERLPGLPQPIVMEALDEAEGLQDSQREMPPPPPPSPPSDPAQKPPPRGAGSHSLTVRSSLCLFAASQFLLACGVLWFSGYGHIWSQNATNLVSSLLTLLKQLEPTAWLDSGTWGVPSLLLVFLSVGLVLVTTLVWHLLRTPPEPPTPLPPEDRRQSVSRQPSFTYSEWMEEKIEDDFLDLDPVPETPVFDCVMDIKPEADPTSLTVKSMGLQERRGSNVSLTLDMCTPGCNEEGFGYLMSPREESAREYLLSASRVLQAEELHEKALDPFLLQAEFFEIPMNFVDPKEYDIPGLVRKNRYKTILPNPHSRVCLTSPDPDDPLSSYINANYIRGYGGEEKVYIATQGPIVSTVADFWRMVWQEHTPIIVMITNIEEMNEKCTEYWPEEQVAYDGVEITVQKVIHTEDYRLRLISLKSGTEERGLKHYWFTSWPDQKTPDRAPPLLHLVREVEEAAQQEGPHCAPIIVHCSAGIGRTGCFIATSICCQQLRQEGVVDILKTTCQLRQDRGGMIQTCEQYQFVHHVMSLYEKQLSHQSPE

[12] = molecular target: Photoreceptor-specific nuclear receptor (Homo sapiens, UniProt Q9Y5X4); assay type: functional, cell-based;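 further: CHO-S cells with Gal4-NCOR and VP16-NR2E3 two-hybrid luciferase reporter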
[13] = test system: INS1; experiment: INS-1E survival protection against cytokine death – cell-based, luminescence, retest, dose response (AID 449756); assay type: functional; conditions: Rattus norvegicus;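 further: cell death triggered by IL-1 beta plus TNF-alpha plus IFN-gamma mixture; protective hits raise ATP signal compared with cytokine alone wells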
[14] = molecular target: T7, Voltage-gated N-type calcium channel alpha-1B subunit/Amyloid beta A4 precursor protein-binding family A member 1 (Homo sapiens, UniProt Q00975+Q02410); assay type: protein assay
[15] = molecular target: T3, Tyrosine-protein phosphatase non-receptor type 22; experiment: PTPN22 enzyme inhibitors – biochemical, fluorescence, LYP catalytic domain, selectivity assay for LMPTP inhibitor project, dose response (AID 652006); assay type: functional; conditions: read-out: IC50_Mean
[16] = molecular target: T8, Low molecular weight phosphotyrosine protein phosphatase (Homo sapiens, UniProt P24666); assay type: functional; conditions: read-out: IC50_Mean;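 further: Dose-response confirmation assay measuring inhibition of LMPTP enzyme activity by fluorescence intensity read-out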
T8 sequence (P24666 whole entry): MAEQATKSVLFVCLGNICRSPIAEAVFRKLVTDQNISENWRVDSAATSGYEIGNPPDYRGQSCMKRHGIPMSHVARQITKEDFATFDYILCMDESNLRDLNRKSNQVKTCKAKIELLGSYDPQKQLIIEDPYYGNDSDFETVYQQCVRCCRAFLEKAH

[17] = molecular target: DNA (cytosine-5)-methyltransferase 1 (Homo sapiens, UniProt P26358); experiment: inhibition of DNA methylation by DNMT1 – biochemical, fluorescent molecular beacon, confirmation (AID 602386); assay type: functional
[18] = molecular target: T7, Voltage-gated N-type calcium channel alpha-1B subunit/Amyloid beta A4 precursor protein-binding family A member 1; assay type: protein assay; remark: listed apart in the source
[19] = cytotoxicity toward MDA-MB-231 breast cancer cells – cell-based, CellTiter-Glo luminescence, cherry-pick, cytotoxicity control for RAD54 inhibitor project, dose response (AID 651692); assay type: functional
[20] = molecular target: T9, DNA repair protein RAD52 homolog (Homo sapiens, UniProt P43351); assay type: functional, biochemical
T9 sequence (P43351 whole entry): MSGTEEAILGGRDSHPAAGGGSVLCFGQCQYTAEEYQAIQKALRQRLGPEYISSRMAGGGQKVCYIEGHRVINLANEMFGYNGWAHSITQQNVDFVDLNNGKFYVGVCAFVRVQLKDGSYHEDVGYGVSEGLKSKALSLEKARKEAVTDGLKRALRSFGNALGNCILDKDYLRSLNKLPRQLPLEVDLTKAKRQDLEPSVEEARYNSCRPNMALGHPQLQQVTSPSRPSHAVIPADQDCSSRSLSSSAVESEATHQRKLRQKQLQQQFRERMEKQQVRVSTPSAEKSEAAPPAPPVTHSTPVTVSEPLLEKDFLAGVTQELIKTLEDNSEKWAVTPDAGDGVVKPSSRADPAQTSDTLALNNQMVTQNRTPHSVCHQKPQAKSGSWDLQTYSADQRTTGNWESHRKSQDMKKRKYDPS

[21] = molecular target: T10, DNA repair and recombination protein RAD54-like (Homo sapiens, UniProt Q92698); experiment: RAD54 Holliday junction migration blockers – biochemical, fluorescence, cherry-picked samples, dose series, confirmation (AID 651657); assay type: functional
T10 sequence (Q92698 whole entry): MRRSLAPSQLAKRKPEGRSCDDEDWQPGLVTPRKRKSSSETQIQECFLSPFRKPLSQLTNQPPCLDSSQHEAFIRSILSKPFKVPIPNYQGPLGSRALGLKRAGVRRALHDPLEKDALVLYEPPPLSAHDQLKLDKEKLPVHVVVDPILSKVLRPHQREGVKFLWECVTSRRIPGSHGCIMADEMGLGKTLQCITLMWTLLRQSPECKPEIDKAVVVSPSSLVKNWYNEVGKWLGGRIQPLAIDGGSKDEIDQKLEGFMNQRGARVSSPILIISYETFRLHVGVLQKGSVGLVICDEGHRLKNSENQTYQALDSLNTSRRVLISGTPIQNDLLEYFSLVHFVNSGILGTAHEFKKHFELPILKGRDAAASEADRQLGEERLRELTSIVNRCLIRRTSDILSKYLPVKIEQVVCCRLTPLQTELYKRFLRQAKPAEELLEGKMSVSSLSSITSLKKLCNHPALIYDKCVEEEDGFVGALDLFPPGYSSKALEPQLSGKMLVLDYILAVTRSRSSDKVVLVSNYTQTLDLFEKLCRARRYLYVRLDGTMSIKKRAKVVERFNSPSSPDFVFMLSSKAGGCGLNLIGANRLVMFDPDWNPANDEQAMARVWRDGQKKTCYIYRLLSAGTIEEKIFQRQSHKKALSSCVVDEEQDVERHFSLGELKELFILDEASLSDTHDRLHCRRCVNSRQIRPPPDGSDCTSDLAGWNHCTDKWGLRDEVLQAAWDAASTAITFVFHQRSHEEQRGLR

[22] = Fluorescence-based cell-based high throughput dose response assay for inhibitors of the interaction of nucleotide-binding oligomerization domain containing 2 (NOD2) and the receptor-interacting serine-threonine kinase 2 (RIPK2).; assay type: functional; conditions: Homo sapiens
[23] = molecular target: Beta Lactamase (Pseudomonas aeruginosa, UniProt Q932Y6); experiment: BLA reporter interference, concentration series – BLA reporter cells, FRET fluorescence, artefact control for NOD2-RIPK2 interaction inhibitor project, dose response (AID 651552); assay type: functional, cell-based
[24] = molecular target: Fatty acid synthase (Homo sapiens, UniProt P49327); experiment: inhibition of human FAS-TE enzyme activity – biochemical, kinetic fluorescence intensity, dose response (AID 624326); assay type: functional;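 further: rate of fluorescence rise from hydrolysis of a fluorogenic O-methyl fluorescein ester substrate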
[25] = molecular target: Hepatocyte nuclear factor 4-alpha (Homo sapiens, UniProt P41235); assay type: functional, cell-based;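 further: biochemical luminescence-based dose-response counterscreen measuring inhibition of HNF4 dimerization, run alongside a screen for blockers of ABHD5–perilipin-5 interaction; split luciferase complementation of HNF4 fusion proteins in cell lysate measuring dimerization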
Hepatocyte nuclear factor 4-alpha, sequence (P41235 whole entry, the tested form may be a part): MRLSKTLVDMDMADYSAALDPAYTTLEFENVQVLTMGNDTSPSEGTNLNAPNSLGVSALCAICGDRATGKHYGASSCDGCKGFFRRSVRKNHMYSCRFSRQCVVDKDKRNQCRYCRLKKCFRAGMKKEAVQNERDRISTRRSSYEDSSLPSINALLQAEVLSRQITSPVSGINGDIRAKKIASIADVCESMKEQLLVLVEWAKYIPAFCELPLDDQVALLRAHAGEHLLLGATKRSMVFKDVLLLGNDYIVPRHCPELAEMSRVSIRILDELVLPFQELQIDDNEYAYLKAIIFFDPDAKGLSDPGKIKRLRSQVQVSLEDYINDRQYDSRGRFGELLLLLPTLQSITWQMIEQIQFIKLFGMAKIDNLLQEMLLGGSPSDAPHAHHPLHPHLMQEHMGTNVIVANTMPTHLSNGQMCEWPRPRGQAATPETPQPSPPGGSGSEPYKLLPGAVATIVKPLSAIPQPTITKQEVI

T1 sequence (P63165 whole entry): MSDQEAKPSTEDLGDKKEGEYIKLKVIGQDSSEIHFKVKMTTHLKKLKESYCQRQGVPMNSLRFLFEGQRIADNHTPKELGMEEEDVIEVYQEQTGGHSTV
T5 sequence (P61956 whole entry): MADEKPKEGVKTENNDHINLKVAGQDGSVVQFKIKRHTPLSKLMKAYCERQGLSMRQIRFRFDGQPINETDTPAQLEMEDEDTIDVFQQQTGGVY
T7 sequence (Q00975 whole entry, the tested form may be a part): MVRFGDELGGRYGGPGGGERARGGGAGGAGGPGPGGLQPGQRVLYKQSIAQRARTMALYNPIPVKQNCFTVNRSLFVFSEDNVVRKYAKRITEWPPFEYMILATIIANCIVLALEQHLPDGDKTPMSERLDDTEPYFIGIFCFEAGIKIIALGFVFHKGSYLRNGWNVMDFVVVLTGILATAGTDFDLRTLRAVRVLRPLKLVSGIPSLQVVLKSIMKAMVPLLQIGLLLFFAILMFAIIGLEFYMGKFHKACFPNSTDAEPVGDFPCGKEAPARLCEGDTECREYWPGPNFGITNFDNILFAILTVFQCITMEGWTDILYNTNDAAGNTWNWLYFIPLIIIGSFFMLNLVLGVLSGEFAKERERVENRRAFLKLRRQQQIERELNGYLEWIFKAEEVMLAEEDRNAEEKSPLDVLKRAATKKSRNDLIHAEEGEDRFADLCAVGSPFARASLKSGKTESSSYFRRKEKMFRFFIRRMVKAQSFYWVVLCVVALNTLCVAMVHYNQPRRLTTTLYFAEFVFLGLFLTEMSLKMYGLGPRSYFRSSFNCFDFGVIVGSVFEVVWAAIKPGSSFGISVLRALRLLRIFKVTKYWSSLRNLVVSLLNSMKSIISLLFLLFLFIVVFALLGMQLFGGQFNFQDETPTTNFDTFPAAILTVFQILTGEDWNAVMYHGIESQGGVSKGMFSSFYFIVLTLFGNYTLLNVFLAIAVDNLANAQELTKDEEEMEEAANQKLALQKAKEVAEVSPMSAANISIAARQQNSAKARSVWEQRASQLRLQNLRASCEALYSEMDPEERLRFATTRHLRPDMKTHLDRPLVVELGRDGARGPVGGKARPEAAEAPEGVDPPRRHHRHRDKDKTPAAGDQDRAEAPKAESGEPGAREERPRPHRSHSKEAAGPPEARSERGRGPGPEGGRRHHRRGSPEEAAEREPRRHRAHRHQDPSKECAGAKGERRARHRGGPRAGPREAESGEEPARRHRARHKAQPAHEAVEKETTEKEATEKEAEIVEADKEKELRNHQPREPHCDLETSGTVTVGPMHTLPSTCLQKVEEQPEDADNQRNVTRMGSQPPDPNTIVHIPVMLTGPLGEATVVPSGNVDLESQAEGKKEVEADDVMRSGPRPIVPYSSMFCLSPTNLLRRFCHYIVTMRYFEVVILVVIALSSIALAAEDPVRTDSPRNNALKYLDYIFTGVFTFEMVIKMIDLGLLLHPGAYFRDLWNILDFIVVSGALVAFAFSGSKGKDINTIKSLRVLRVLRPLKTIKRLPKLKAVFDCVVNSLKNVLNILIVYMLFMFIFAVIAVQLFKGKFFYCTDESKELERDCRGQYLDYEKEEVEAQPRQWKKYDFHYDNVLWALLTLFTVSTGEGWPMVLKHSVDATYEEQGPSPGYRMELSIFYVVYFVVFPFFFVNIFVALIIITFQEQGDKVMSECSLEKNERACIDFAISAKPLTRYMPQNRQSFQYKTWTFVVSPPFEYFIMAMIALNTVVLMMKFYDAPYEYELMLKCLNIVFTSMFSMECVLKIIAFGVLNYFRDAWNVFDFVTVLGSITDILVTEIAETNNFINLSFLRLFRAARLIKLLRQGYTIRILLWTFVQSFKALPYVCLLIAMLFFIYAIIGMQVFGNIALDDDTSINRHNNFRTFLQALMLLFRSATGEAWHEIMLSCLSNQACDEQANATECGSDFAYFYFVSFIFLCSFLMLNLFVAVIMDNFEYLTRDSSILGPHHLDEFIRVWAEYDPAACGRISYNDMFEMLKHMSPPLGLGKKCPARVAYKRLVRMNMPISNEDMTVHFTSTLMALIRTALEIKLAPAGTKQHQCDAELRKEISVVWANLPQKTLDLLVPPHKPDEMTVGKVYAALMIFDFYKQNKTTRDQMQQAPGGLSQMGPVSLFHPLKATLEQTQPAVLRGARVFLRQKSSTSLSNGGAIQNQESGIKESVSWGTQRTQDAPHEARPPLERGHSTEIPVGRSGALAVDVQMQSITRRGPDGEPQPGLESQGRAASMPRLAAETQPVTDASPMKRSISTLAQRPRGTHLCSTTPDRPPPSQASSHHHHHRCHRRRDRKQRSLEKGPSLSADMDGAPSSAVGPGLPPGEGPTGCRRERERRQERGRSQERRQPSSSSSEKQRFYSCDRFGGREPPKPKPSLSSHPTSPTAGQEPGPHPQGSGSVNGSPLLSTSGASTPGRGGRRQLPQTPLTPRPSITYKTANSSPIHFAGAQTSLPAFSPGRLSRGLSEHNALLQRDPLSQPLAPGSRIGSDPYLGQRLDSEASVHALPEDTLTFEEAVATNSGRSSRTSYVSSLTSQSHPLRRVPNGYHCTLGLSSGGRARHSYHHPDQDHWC
T7 sequence (Q02410 whole entry, the tested form may be a part): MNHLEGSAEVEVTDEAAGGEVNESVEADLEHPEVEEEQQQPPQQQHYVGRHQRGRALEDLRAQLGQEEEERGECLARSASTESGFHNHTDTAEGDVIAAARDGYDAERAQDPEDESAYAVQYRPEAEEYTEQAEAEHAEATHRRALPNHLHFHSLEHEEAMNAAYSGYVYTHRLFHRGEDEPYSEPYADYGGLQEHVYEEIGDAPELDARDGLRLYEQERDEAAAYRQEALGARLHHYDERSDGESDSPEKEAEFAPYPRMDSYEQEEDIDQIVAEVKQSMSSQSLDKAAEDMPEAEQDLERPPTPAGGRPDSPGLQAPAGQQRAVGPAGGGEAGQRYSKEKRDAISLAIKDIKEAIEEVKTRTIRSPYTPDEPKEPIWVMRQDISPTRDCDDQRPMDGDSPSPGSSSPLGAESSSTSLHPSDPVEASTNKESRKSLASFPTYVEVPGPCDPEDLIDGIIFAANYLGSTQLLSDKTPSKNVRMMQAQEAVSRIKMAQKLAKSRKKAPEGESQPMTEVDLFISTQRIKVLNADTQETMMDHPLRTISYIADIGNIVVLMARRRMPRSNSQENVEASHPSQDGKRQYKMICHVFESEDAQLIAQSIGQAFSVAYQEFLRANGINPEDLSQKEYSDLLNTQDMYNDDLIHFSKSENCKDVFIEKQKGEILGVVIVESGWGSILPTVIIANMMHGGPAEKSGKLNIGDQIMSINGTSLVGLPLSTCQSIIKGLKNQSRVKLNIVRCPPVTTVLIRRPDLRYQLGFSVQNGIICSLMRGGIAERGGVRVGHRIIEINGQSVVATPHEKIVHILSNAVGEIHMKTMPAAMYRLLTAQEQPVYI
Polyadenylate-binding protein 1, sequence (P11940 whole entry): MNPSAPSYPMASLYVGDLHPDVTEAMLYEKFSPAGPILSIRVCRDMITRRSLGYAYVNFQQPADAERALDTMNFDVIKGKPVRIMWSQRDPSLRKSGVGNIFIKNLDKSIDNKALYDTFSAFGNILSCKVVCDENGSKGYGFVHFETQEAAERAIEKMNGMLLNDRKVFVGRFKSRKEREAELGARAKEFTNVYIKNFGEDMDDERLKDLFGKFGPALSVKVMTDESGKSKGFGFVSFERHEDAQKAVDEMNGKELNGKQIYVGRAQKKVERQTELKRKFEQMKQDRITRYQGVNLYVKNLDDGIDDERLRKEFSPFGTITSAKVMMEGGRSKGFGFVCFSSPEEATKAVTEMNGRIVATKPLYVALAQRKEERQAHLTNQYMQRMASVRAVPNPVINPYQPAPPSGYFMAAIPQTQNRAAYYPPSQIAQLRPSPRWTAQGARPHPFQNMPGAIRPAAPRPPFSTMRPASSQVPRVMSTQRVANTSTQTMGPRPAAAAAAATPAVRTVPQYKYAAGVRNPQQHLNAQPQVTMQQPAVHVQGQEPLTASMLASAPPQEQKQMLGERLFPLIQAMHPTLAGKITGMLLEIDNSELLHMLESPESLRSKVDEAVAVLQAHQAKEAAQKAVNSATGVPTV
Beta Lactamase, sequence (Q932Y6 whole entry): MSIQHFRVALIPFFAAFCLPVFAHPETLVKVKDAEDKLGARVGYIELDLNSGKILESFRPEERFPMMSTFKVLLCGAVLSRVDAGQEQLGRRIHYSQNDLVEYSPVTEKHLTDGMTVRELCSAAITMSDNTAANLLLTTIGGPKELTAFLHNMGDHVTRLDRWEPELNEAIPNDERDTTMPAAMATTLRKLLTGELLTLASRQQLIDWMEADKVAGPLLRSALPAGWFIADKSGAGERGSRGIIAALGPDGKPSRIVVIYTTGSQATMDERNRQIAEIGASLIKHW

Compound: O=C(Nc1cc([N+](=O)[O-])ccc1O)c1cccc(C(=O)Nc2cc([N+](=O)[O-])ccc2O)c1
- IC50 [1]: 0.751 µM (active)
- IC50 [2]: 0.456 µM (active)
- IC50 [3]: 8.76 µM (active)
- IC50 [4]: 1.03 µM (active)
- IC50 [5]: 7.71 µM (active)
- IC50 [6]: > 66 µM (inactive)
- IC50 [7]: 9.33 µM (active)
- IC50 [8]: 0.509 µM (active)
- IC50 [9]: 53.8 µM (inactive)
- IC50 [10]: 8.96 µM (active)
- IC50 [11]: 1.98 µM (active)

Compound: Cc1sc2ncnc(NCC(O)c3ccccc3)c2c1C (stereo not drawn)
- IC50 [12]: 20.9 µM (inactive)
- AC50 [13]: 5.29 µM (active)

Compound: CCOC(=O)c1cc(-c2ccc(N3CCOCC3)cc2)nn1-c1ccccc1C(=O)O
- IC50 [14]: > 50 µM (inactive)
- IC50 [1]: > 66.6 µM (inactive)
- IC50 [15]: 8.42 µM (active)
- IC50 [4]: 5.98 µM (active)
- IC50 [16]: 12.3 µM (active)
- IC50 [9]: 1.51 µM (active)
- IC50 [17]: 6.99 µM (active)
- IC50 [18]: 5.98 µM (active)

Compound: COc1cc(C(=O)NC2CCN(C)CC2)ccc1Nc1ncc2c(n1)N(C1CCCCC1)CCC(=O)N2C
- AC50 [19]: 32.5 µM (active)
- AC50 [20]: 5.86 µM (active)
- AC50 [21]: 12 µM (active)

Compound: CCOC(=O)[C@]12Cc3ccccc3[C@H]1N(C1CCCCC1)C(=O)c1cc(OC)ccc12
- IC50 [22]: 2.28 µM (active)
- IC50 [23]: 48 µM (inactive)
- IC50 [24]: 8.19 µM (active)

Compound: CCC(c1nc2ccccc2[nH]1)n1c(=O)c(-c2ccco2)nc2ccccc21 (stereo not drawn)
- IC50 [25]: 3.79 µM (active)

— ChEMBL document CHEMBL1201862, “PubChem BioAssay data set” (2004)
